Values of other authors in patent publication US20200029555A1, “BIODEGRADABLE HYDROGEL TO DELIVER AQUEOUS BAIT TO CONTROL PEST ANTS” (priority 2016, published 2020).

Tests used:
[1] = tested on: Argentine ants; conditions: 0.001% liquid thiamethoxam
[2] = tested on: laboratory colonies of queens and workers; conditions: liquid baits 0.00001-0.005% thiamethoxam; 14-day period

## CN1COCN(Cc2cnc(Cl)s2)/C1=N\[N+](=O)[O-] [thiamethoxam]
[1]
  reduction of Argentine ants in urban settings: successfully reduced
[2]
  mortality of laboratory colonies of queens and workers: complete mortality
